US11384060B2, “Amide compounds and use thereof” (ALPHALA CO., LTD., priority 2017, dated 2022)
Where two headings read alike, the source gives them in different places.

Assays:
glucagon receptor (GCGR) = target: T1, glucagon receptor (GCGR) (Homo sapiens, UniProt P47871); experiment: I125-glucagon binding assay (competition, GCGR membrane fractions)
T1 construct: expressed in transfected cells; host or cells: CHO-K1 cells overexpressing GCGR (membrane fractions)
Outline: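 Competition of 0.0625 nM (final) I^125-glucagon for 30 min at 25° C, after 5 min compound preincubation, using 7.5 μg/well GCGR-overexpressing CHO-K1 membranes in 50 mM Tris pH 7.4, 0.5% BSA. Filtration onto PEI-coated GF/B, micro-beta counting, and non-linear regression gave IC50.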

[1] = target: T2, glucagon receptor (GCGR) overexpressed CHO-K1 cells or human primary hepatocytes (Homo sapiens, UniProt P47871); experiment: Glucagon cAMP inhibition assay (Cisbio cAMP Dynamic 2 HTRF); format: cell-based
T2 construct: expressed in transfected cells; host or cells: GCGR overexpressed CHO-K1 cells or human primary hepatocytes (endogenous receptor)
T2 sequence (P47871 26-477): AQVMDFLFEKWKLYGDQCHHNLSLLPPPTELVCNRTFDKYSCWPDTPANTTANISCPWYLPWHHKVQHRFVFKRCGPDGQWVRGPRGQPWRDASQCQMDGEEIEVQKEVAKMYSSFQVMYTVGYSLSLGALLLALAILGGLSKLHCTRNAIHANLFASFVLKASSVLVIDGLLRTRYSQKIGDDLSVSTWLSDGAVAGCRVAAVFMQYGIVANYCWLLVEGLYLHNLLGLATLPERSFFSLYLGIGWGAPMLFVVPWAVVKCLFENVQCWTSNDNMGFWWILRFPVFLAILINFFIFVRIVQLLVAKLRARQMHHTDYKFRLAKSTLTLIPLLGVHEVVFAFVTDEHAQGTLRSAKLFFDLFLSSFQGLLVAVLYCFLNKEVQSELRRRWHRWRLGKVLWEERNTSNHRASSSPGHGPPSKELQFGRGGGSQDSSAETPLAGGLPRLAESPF
Outline: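 HTRF read-out of glucagon-induced cAMP, with IC50 from non-linear regression. Cells (GCGR CHO-K1 or human primary hepatocytes) in HBSS/0.1% BSA/800 nM IBMX took compound dilutions for 30 min (final DMSO 1%), then EC50-level glucagon for 30 min at room temperature, then a 60 min lysis/detection step.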

[2] = competition with I125-glucagon 0.0625 nM, membrane fractions of GCGR overexpressed CHO-K1 cells
[3] = inhibition of glucagon (EC50 concentration) induced cAMP production

T1 sequence (P47871 26-477): as above

Structure (SMILES)	IC50 (glucagon receptor (GCGR); [2]) [µM]	IC50 cAMP [1, 3] [nM]	IC50 (glucagon receptor (GCGR)) [µM]	IC50 cAMP [1] [nM]	IC50 (glucagon receptor (GCGR); uM) [µM]
CC(C)C[C@@H](COc1ccc(-c2ccc(F)cc2F)nn1)Nc1ccc(C(=O)NCCC(=O)O)cc1 [Compound 17-1, (S)-3-(4-((1-((6-(2,4-difluorophenyl)pyridazin-3-yl)oxy)-4-methylpentan-2-yl)amino)benzamido)propanoic Acid]	2.26	4239			
CC(C)(C)c1ccc(NC(=O)[C@H](Cc2ccc3ccccc3c2)Nc2ccc(C(=O)NCCC(=O)O)cc2)cc1 [Compound 23-20, (S)-3-(4-((1-((4-(tert-butyl)phenyl)amino)-3-(naphthalen-2-yl)-1-oxopropan-2-yl)amino)benzamido)propanoic Acid]			0.724	4700	
CCOC(=O)CCNC(=O)c1ccc(N[C@H](C(=O)Nc2ccc(-c3cc4ccccc4o3)cc2)[C@@H](C)CC)cc1 [Compound 23-30]			1.48	25.2	
CCOC(=O)CCNC(=O)c1ccc(N[C@@H](CC(C)C)C(=O)Nc2ccc(-c3cc4ccccc4o3)cc2)cc1 [Compound 23-6, Ethyl (S)-3-(4-((1-((4-(benzofuran-2-yl)phenyl)amino)-4-methyl-1-oxopentan-2-yl)amino)benzamido)propanoate]			2.51	181	
CCCC[C@@H](COc1ccc(-c2ccc(C(F)(F)F)cc2Cl)cn1)Nc1ccc(C(=O)NCCC(=O)O)cc1 [Compound 15-25, (S)-3-(4-((1-((5-(2-chlor-4-(trifluoromethyl)phenyl)pyridin-2-yl)oxy)hexan-2-yl)amino)benzamido)propanoic Acid]			0.218	245	
CC[C@H](C)[C@@H](COc1ccc(-c2nnc(C(C)(C)C)o2)cc1)Nc1ccc(C(=O)NCCC(=O)O)cn1 [Compound 4-4, 3-(6-(((2S,3S)-1-(4-(5-(tert-butyl)-1,3,4-oxadiazol-2-yl)phenoxy)-3-methylpentan-2-yl)amino)nicotinamido)propanoic Acid]	2.39	>30000			
CCOC(=O)CCNC(=O)c1ccc(N[C@H](Cc2ccc(-c3cc4ccccc4o3)cc2)C(=O)Nc2ccc(C(F)(F)F)cc2)cc1 [Compound 24-19, Ethyl (R)-3-(4-((3-(4-(benzofuran-2-yl)phenyl)-1-oxo-1-((4-(trifluoromethyl)phenyl)amino)propan-2-yl)amino)benzamido)propanoate]			1.37	538.4	
CC(C)[C@@H](COc1ccc(-c2cc3ccccc3o2)cn1)Nc1ccc(C(=O)NCCC(=O)O)cn1 [Compound 16-2, (S)-3-(6-((1-((5-(benzofuran-2-yl)pyridin-2-yl)oxy)-3-methylbutan-2-yl)amino)nicotinamido)propanoic Acid]	0.528	239.3			
CCOC(=O)CCNC(=O)c1ccc(N[C@@H](Cc2ccccc2)C(=O)Nc2ccc(-c3ccc(Cl)cc3Cl)cc2)cc1 [Compound 23-15, Ethyl (S)-3-(4-((1-((2′,4′-dichloro-[1,1′-biphenyl]-4-yl)amino)-1-oxo-3-phenylpropan-2-yl)amino)benzamido)propanoate]				6300	> 10

Continued, values first:

IC50 (glucagon receptor (GCGR); [2]) [µM]	IC50 cAMP [1, 3] [nM]	IC50 (glucagon receptor (GCGR)) [µM]	IC50 cAMP [1] [nM]	IC50 (glucagon receptor (GCGR); uM) [µM]	Structure (SMILES)
0.531	1959				CC(C)[C@@H](COc1ccc(-c2ccc(C(F)(F)F)cc2)nc1)Nc1ccc(C(=O)NCCC(=O)O)cc1 [Compound 10-1, (S)-3-(4-((3-methyl-1-((6-(4-(trifluoromethyl)phenyl)pyridin-3-yl)oxy)butan-2-yl)amino)benzamido)propanoic Acid]
24.5	90				CCOC(=O)CCNC(=O)c1ccc(N[C@@H](COc2ccc(-c3nc4ccccc4o3)cc2)C(C)C)cc1 [Compound 1-53]
0.051	367.7				CCCC[C@@H](COc1ccc(-c2ccc(C(F)(F)F)cc2)c(Cl)c1)Nc1ccc(C(=O)NCCC(=O)O)cc1 [Compound 3-16, (S)-3-(4-((1-((2-chloro-4′-(trifluoromethyl)-[1,1′-biphenyl]-4-yl)oxy)hexan-2-yl)amino)benzamido)propanoic Acid]
0.179	301				CC[C@H](C)[C@@H](COc1ccc(-c2ccc(Cl)cc2Cl)nc1)Nc1ccc(C(=O)NCCC(=O)O)cc1 [Compound 10-15, 3-(4-(((2S,3S)-1-((6-(2,4-dichlorophenyl)pyridin-3-yl)oxy)-3-methylpentan-2-yl)amino)benzamido)propanoic Acid]
1.01	>30000				CC(C)[C@@H](COc1ccc(-c2ccc(F)cc2F)nn1)Nc1ccc(C(=O)NCCC(=O)O)cc1 [Compound 17-11, (S)-3-(4-((1-((6-(2,4-difluorophenyl)pyridazin-3-yl)oxy)-3-methylbutan-2-yl)amino)benzamido)propanoic Acid]
> 30	>30000				CC(C)[C@@H](COc1ccc(-c2ccc(N(C)C)cc2)cc1)Nc1ccc(C(=O)NC[C@@H](O)C(=O)O)cc1 [Compound 1-21, (R)-3-(4-(((S)-1-((4′-(dimethylamino)-[1,1′-biphenyl]-4-yl)oxy)-3-methylbutan-2-yl)amino)benzamido)-2-hydroxypropanoic Acid]
		2	18257		CC(C)(C)c1nnc(-c2ccc(OC[C@@H](Nc3ccc(C(=O)NCCC(=O)O)cc3)c3ccc(-c4ccc(C(F)(F)F)cc4)cc3)nc2)o1 [Compound 15-30, (S)-3-(4-((2-((5-(5-(tert-butyl)-1,3,4-oxadiazol-2-yl)pyridin-2-yl)oxy)-1-(4′-(trifluoromethyl)-[1,1′-biphenyl]-4-yl)ethyl)amino)benzamido)propanoic Acid]
0.266	6849				CC(C)[C@@H](COc1cnc(-c2cc3ccccc3o2)nc1)Nc1ccc(C(=O)NCCC(=O)O)cc1 [Compound 12-2, (S)-3-(4-((1-((2-(benzofuran-2-yl)pyrimidin-5-yl)oxy)-3-methylbutan-2-yl)amino)benzamido)propanoic Acid]
0.369	626.9				CC(C)[C@@H](COc1ccc(-c2ccc(C(F)(F)F)cc2)cc1)Nc1ccc(C(=O)NCCC(=O)O)cn1 [Compound 4-1, (S)-3-(6-((3-methyl-1-((4′-(trifluoromethyl)-[1,1′-biphenyl]-4-yl)oxy)butan-2-yl)amino)nicotinamido)propanoic Acid]
		0.375	4100		CC(C)C[C@H](Nc1ccc(C(=O)NCCC(=O)O)cc1)C(=O)Nc1ccc(-c2cc3ccccc3s2)cc1 [Compound 23-12, (S)-3-(4-((1-((4-(benzo[b]thiophen-2-yl)phenyl)amino)-4-methyl-1-oxopentan-2-yl)amino)benzamido)propanoic Acid]
0.182	165				CC(C)[C@@H](COc1cc(F)c(-c2ccc(C(F)(F)F)cc2F)c(F)c1)Nc1ccc(C(=O)NCCC(=O)O)cc1 [Compound 7-4, (S)-3-(4-((3-methyl-1-((2,2′,6-trifluoro-4′-(trifluoromethyl)-[1,1′-biphenyl]-4-yl)oxy)butan-2-yl)amino)benzamido)propanoic Acid]
0.156	293				CC(C)(C)[C@@H](COc1ccc(-c2cc3ccccc3o2)c(Cl)c1)Nc1ccc(C(=O)NCCC(=O)O)cc1 [Compound 3-23, (S)-3-(4-((1-(4-(benzofuran-2-yl)-3-chlorophenoxy)-3,3-dimethylbutan-2-yl)amino)benzamido)propanoic Acid]
